Measurements reported in PubChem BioAssay (NCI).
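Values below derive from 48-hour exposures of cells grown in 96-well plates, with endpoints linearly interpolated between the two concentrations bracketing the appropriate inhibition level. GI50 is the concentration that inhibits growth by half. TGI denotes the concentration required for complete inhibition of growth.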

Tests used:
Test in all cases: inhibition of tumour cell growth, NCI panel, 48 h
786-0 renal = tested on: 786-0 renal
A498 renal = tested on: A498 renal
A549 NSCLC = tested on: A549 NSCLC
ACHN renal = tested on: ACHN renal
BT-549 breast = tested on: BT-549 breast
CAKI-1 renal = tested on: CAKI-1 renal
CCRF-CEM leukemia = tested on: CCRF-CEM leukemia
COLO 205 colon = tested on: COLO 205 colon
DU-145 prostate = tested on: DU-145 prostate
EKVX NSCLC = tested on: EKVX NSCLC
HCT-116 colon = tested on: HCT-116 colon
HCT-15 colon = tested on: HCT-15 colon
HL-60(TB) leukemia = tested on: HL-60(TB) leukemia
HOP-62 NSCLC = tested on: HOP-62 NSCLC
HOP-92 NSCLC = tested on: HOP-92 NSCLC
HS 578T breast = tested on: HS 578T breast
HT29 colon = tested on: HT29 colon
IGROV1 ovarian = tested on: IGROV1 ovarian
K-562 leukemia = tested on: K-562 leukemia
KM12 colon = tested on: KM12 colon
LOX IMVI melanoma = tested on: LOX IMVI melanoma
M14 melanoma = tested on: M14 melanoma
MALME-3M melanoma = tested on: MALME-3M melanoma
MCF7 breast = tested on: MCF7 breast
MDA-MB-231 breast = tested on: MDA-MB-231 breast
MDA-MB-435 = tested on: MDA-MB-435
NCI-H226 lung = tested on: NCI-H226 lung
NCI-H23 lung = tested on: NCI-H23 lung
NCI-H460 lung = tested on: NCI-H460 lung
NCI-H522 lung = tested on: NCI-H522 lung
NCI/ADR-RES ovarian = tested on: NCI/ADR-RES ovarian
OVCAR-3 ovarian = tested on: OVCAR-3 ovarian
OVCAR-4 ovarian = tested on: OVCAR-4 ovarian
OVCAR-5 ovarian = tested on: OVCAR-5 ovarian
OVCAR-8 ovarian = tested on: OVCAR-8 ovarian
PC-3 prostate = tested on: PC-3 prostate
RPMI-8226 leukemia = tested on: RPMI-8226 leukemia
RXF 393 renal = tested on: RXF 393 renal
SF-268 CNS = tested on: SF-268 CNS
SF-295 CNS = tested on: SF-295 CNS
SF-539 CNS = tested on: SF-539 CNS
SK-MEL-2 melanoma = tested on: SK-MEL-2 melanoma
SK-MEL-28 melanoma = tested on: SK-MEL-28 melanoma
SK-MEL-5 melanoma = tested on: SK-MEL-5 melanoma
SK-OV-3 ovarian = tested on: SK-OV-3 ovarian
SN12C renal = tested on: SN12C renal
SNB-19 CNS = tested on: SNB-19 CNS
SNB-75 CNS = tested on: SNB-75 CNS
SR leukemia = tested on: SR leukemia
SW-620 colon = tested on: SW-620 colon
TK-10 renal = tested on: TK-10 renal
U251 CNS = tested on: U251 CNS
UACC-257 melanoma = tested on: UACC-257 melanoma
UACC-62 melanoma = tested on: UACC-62 melanoma

Compound: O=S(=O)(Nc1ccc(-c2nc(-c3cccc(O)c3)c(-c3ccnc(Br)c3)[nH]2)cc1)c1ccccc1
- GI50 (786-0 renal): 2.51 µM
- TGI (786-0 renal): 7.48 µM
- GI50 (A498 renal): 0.364 µM
- TGI (A498 renal): 3.67 µM
- GI50 (A549 NSCLC): 3 µM
- TGI (A549 NSCLC): 33.1 µM
- GI50 (ACHN renal): 2.55 µM
- TGI (ACHN renal): 6.96 µM
- GI50 (BT-549 breast): 2.49 µM
- TGI (BT-549 breast): 6.76 µM
- GI50 (CAKI-1 renal): 2.15 µM
- TGI (CAKI-1 renal): 7.51 µM
- GI50 (CCRF-CEM leukemia): 1.91 µM
- TGI (CCRF-CEM leukemia): > 100 µM
- GI50 (COLO 205 colon): 2.42 µM
- TGI (COLO 205 colon): 6.81 µM
- GI50 (DU-145 prostate): 3.24 µM
- TGI (DU-145 prostate): 10.9 µM
- GI50 (EKVX NSCLC): 2.55 µM
- TGI (EKVX NSCLC): 8.09 µM
- GI50 (HCT-116 colon): 2.43 µM
- TGI (HCT-116 colon): 7.16 µM
- GI50 (HCT-15 colon): 1.97 µM
- TGI (HCT-15 colon): 4.76 µM
- GI50 (HL-60(TB) leukemia): 2.44 µM
- TGI (HL-60(TB) leukemia): 6.46 µM
- GI50 (HOP-62 NSCLC): 2.42 µM
- TGI (HOP-62 NSCLC): 6.43 µM
- GI50 (HOP-92 NSCLC): 1.69 µM
- TGI (HOP-92 NSCLC): 4.9 µM
- GI50 (HS 578T breast): 1.5 µM
- TGI (HS 578T breast): 4.39 µM
- GI50 (HT29 colon): 3.17 µM
- TGI (HT29 colon): 18.3 µM
- GI50 (IGROV1 ovarian): 2.88 µM
- TGI (IGROV1 ovarian): 11.3 µM
- GI50 (K-562 leukemia): 2.27 µM
- TGI (K-562 leukemia): > 100 µM
- GI50 (KM12 colon): 2.32 µM
- TGI (KM12 colon): 5.99 µM
- GI50 (LOX IMVI melanoma): 1.74 µM
- TGI (LOX IMVI melanoma): 3.29 µM
- GI50 (M14 melanoma): 2.5 µM
- TGI (M14 melanoma): 8.55 µM
- GI50 (MALME-3M melanoma): 2.1 µM
- TGI (MALME-3M melanoma): 6.89 µM
- GI50 (MCF7 breast): 2.3 µM
- TGI (MCF7 breast): 7.3 µM
- GI50 (MDA-MB-231 breast): 2.71 µM
- TGI (MDA-MB-231 breast): 11.7 µM
- GI50 (MDA-MB-435): 2.2 µM
- TGI (MDA-MB-435): 6.54 µM
- GI50 (NCI-H226 lung): 2.25 µM
- TGI (NCI-H226 lung): 7.27 µM
- GI50 (NCI-H23 lung): 2.18 µM
- TGI (NCI-H23 lung): 6.11 µM
- GI50 (NCI-H460 lung): 2.14 µM
- TGI (NCI-H460 lung): 4.71 µM
- GI50 (NCI-H522 lung): 2.48 µM
- TGI (NCI-H522 lung): 9.95 µM
- GI50 (NCI/ADR-RES ovarian): 3.04 µM
- TGI (NCI/ADR-RES ovarian): 32 µM
- GI50 (OVCAR-3 ovarian): 2.07 µM
- TGI (OVCAR-3 ovarian): 4.82 µM
- GI50 (OVCAR-4 ovarian): 3.09 µM
- TGI (OVCAR-4 ovarian): 15.1 µM
- GI50 (OVCAR-5 ovarian): 4.34 µM
- TGI (OVCAR-5 ovarian): 22.7 µM
- GI50 (OVCAR-8 ovarian): 2.84 µM
- TGI (OVCAR-8 ovarian): 9.74 µM
- GI50 (PC-3 prostate): 2.12 µM
- TGI (PC-3 prostate): 6.82 µM
- GI50 (RPMI-8226 leukemia): 2.35 µM
- TGI (RPMI-8226 leukemia): 6.63 µM
- GI50 (RXF 393 renal): 1.93 µM
- TGI (RXF 393 renal): 4.36 µM
- GI50 (SF-268 CNS): 3.18 µM
- TGI (SF-268 CNS): 13.7 µM
- GI50 (SF-295 CNS): 1.9 µM
- TGI (SF-295 CNS): 4.25 µM
- GI50 (SF-539 CNS): 2.01 µM
- TGI (SF-539 CNS): 4.75 µM
- GI50 (SK-MEL-2 melanoma): 2.41 µM
- TGI (SK-MEL-2 melanoma): 6.21 µM
- GI50 (SK-MEL-28 melanoma): 2.86 µM
- TGI (SK-MEL-28 melanoma): 9.36 µM
- GI50 (SK-MEL-5 melanoma): 2.4 µM
- TGI (SK-MEL-5 melanoma): 5.82 µM
- GI50 (SK-OV-3 ovarian): 2.76 µM
- TGI (SK-OV-3 ovarian): 7.34 µM
- GI50 (SN12C renal): 2.91 µM
- TGI (SN12C renal): 13.2 µM
- GI50 (SNB-19 CNS): 3.32 µM
- TGI (SNB-19 CNS): 15.5 µM
- GI50 (SNB-75 CNS): 1.3 µM
- TGI (SNB-75 CNS): 7.18 µM
- GI50 (SR leukemia): 2.29 µM
- TGI (SR leukemia): > 100 µM
- GI50 (SW-620 colon): 2.84 µM
- TGI (SW-620 colon): 10.6 µM
- GI50 (TK-10 renal): 3.04 µM
- TGI (TK-10 renal): 9.95 µM
- GI50 (U251 CNS): 2.71 µM
- TGI (U251 CNS): 10.8 µM
- GI50 (UACC-257 melanoma): 2.53 µM
- TGI (UACC-257 melanoma): 7.15 µM
- GI50 (UACC-62 melanoma): 1.91 µM
- TGI (UACC-62 melanoma): 4.97 µM
